One data set addresses T1, Cx43 hemichannels (Homo sapiens, UniProt P17302).
T1 construct: expressed in transfected cells; host or cells: HEK293 (HEK-hCx43, transduced)
Put plainly: Cx43 hemichannel activity assay (extracellular ATP release, bioluminescence). The following applies: HEK-hCx43 cells; for extracellular ATP release (Cx43 hemichannel activity) compared to DF control: 30 min exposure in DF buffer; for extracellular ATP levels at lower concentrations: CC10/2: 8.5 µM azithromycin, 7 µM chloroquine, 6.25 µM hydroxychloroquine; for extracellular ATP release at highest applied concentration: lopinavir 190 µM, remdesivir 500 µM (CC10 x10). It is filed as cell-based.

Another data set concerns Cx43 mRNA expression. Kind of data set: RT-qPCR analysis of Cx43 mRNA expression. Format: cell-based, human. The following applies: DUBCA-hCx43 cells, 24 h; for Cx43 mRNA expression: CC10, CC10/2 and CC10/10 (all tested concentrations). A general note: Quantitative PCR measures a nucleic acid by following its amplification.
The conditions of data set [1]: retrieved from the literature; cited from earlier work.
The test system of a further data set is DUBCA-hCx43 cells. Put plainly: MTT cell viability assay for CC10 determination, 24 h drug exposure. Particulars: 24 h exposure; for CC10 (concentration inducing 10% cell death): extrapolated from concentration-response curves.
A further data set has as its system Cx43 protein expression. Particulars: cited from earlier work.
Data set [2] concerns gap junctional communication. Particulars: cited from earlier work.

The values below come from PMC9103705, “Effects of Drugs Formerly Proposed for COVID-19 Treatment on Connexin43 Hemichannels” (International Journal of Molecular Sciences, 2022).

Bounds are passed on as bounds.

T1 sequence (P17302 whole entry): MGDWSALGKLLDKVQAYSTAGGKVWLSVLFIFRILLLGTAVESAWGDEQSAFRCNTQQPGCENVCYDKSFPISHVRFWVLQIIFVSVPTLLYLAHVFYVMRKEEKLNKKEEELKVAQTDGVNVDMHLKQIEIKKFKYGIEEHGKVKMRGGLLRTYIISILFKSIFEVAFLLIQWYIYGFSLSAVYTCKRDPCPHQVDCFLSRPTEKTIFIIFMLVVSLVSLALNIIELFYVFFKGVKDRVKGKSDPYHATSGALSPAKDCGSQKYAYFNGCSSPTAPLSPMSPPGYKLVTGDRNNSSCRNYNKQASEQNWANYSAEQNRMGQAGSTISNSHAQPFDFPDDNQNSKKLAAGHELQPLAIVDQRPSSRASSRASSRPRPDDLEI

For `CC(C)c1nc(CN(C)C(=O)N[C@H](C(=O)N[C@@H](Cc2ccccc2)C[C@H](O)[C@H](Cc2ccccc2)NC(=O)OCc2cncs2)C(C)C)cs1` [Ritonavir], the “extracellular ATP release (Cx43 hemichannel activity) compared to DF control” value at Cx43 hemichannels was “not significantly different from the DF control”. Also, the “Cx43 mRNA expression” value with Cx43 mRNA expression is given as “no effects”. The “Cmax (total peak plasma concentration at therapeutic dose)” value (from here on “Cmax”) in data set [1] was 1.17 [31] µM. Besides, in the data set with DUBCA-hCx43 cells, the “CC10 (concentration inducing 10% cell death)” value was 16 µM.
Turning to `CCN(CCO)CCCC(C)Nc1ccnc2cc(Cl)ccc12` (stereo not drawn) [Hydroxychloroquine (sulphate), Hydroxychloroquine], the “extracellular ATP levels at lower concentrations” value on Cx43 hemichannels (30 min) was “increase extracellular ATP levels”. Further, the “Cx43 mRNA expression” value with Cx43 mRNA expression was “no effects”. Besides, the “Cx43 protein expression in cardiomyocytes” value in the data set on Cx43 protein expression is reported as “induced an elevation of Cx43 protein expression”. Further, the “CC10 (concentration inducing 10% cell death)” value with DUBCA-hCx43 cells is 12.5 µM.
Consider `C[C@@H]1C[C@H]2[C@@H]3CCC4=CC(=O)C=C[C@]4(C)[C@@]3(F)[C@@H](O)C[C@]2(C)[C@@]1(O)C(=O)CO` [Dexamethasone], for which the “concentration dependence of ATP release” value on Cx43 hemichannels (30 min, stepwise increase in ATP at lower concentrations) was “might have a concentration-dependent effect on ATP release”. In addition, the “extracellular ATP release (Cx43 hemichannel activity) compared to DF control” value on Cx43 hemichannels was “not significantly different from the DF control”. The “Cx43 mRNA expression” value in the data set with Cx43 mRNA expression is “no effects”. In data set [2], the gap junctional communication result is “reduce gap junctional communication”. The “Cmax” value in data set [1] is 0.63 [25] µM. In the data set on DUBCA-hCx43 cells, the “cytotoxic effect on the cells” value was “did not show any cytotoxic effect” and the “CC10 (concentration inducing 10% cell death)” value is listed as above 200 µM.
Take `CC1(C)[C@@H](OC(=O)CCC(=O)O)CC[C@]2(C)[C@H]3C(=O)C=C4[C@@H]5C[C@@](C)(C(=O)O)CC[C@]5(C)CC[C@@]4(C)[C@]3(C)CC[C@@H]12` [Cbx, carbenoxolone]: the “extracellular ATP release (Cx43 hemichannel activity) compared to DF control” value at Cx43 hemichannels is recorded as “lower ATP levels”.
Turning to `Cc1cccc(C)c1OCC(=O)N[C@@H](Cc1ccccc1)[C@@H](O)C[C@H](Cc1ccccc1)NC(=O)[C@H](C(C)C)N1CCCNC1=O` [Lopinavir], the “extracellular ATP release at highest applied concentration” value at Cx43 hemichannels (30 min) is listed as “released a significantly higher amount of ATP”. Also, the “Cx43 mRNA expression” value with Cx43 mRNA expression is “no effects”. Besides, the “CC10 (concentration inducing 10% cell death)” value in the data set with DUBCA-hCx43 cells was 19 µM.
As for `NC(=O)c1ncn([C@@H]2O[C@H](CO)[C@@H](O)[C@H]2O)n1` [Ribavirin], the “extracellular ATP release (Cx43 hemichannel activity) compared to DF control” value on Cx43 hemichannels was “not significantly different from the DF control”. The “Cx43 mRNA expression” value in the data set on Cx43 mRNA expression is given as “no effects”. For the same molecule, in the data set on DUBCA-hCx43 cells, the “CC10 (concentration inducing 10% cell death)” value is recorded as 10 µM.
Regarding `CC[C@H]1OC(=O)[C@H](C)[C@@H](O[C@H]2C[C@@](C)(OC)[C@@H](O)[C@H](C)O2)[C@H](C)[C@@H](O[C@@H]2O[C@H](C)C[C@H](N(C)C)[C@H]2O)[C@](C)(O)C[C@@H](C)CN(C)[C@H](C)[C@@H](O)[C@]1(C)O` [Azithromycin (dihydrate), Azithromycin], the “extracellular ATP levels at lower concentrations” value at Cx43 hemichannels (30 min) is recorded as “increase extracellular ATP levels”. The “Cx43 mRNA expression” value with Cx43 mRNA expression is given as “no effects”. In data set [1], the “Cmax” value was 0.52 [23] µM. Moreover, the “CC10 (concentration inducing 10% cell death)” value with DUBCA-hCx43 cells was 17 µM.
For `CCN(CC)CCCC(C)Nc1ccnc2cc(Cl)ccc12` (stereo not drawn) [Chloroquine (diphosphate), Chloroquine], at Cx43 hemichannels (30 min), the “extracellular ATP levels at lower concentrations” value was “increase extracellular ATP levels”. Further, the “Cx43 mRNA expression” value with Cx43 mRNA expression was “no effects”. The gap junctional communication result in data set [2] was “did not had any effects”. The “Cmax” value in data set [1] was 0.81 [24] µM.
`CCC(CC)COC(=O)[C@H](C)N[P@](=O)(OC[C@H]1O[C@@](C#N)(c2ccc3c(N)ncnn23)[C@H](O)[C@@H]1O)Oc1ccccc1` [Remdesivir]: the “extracellular ATP release at highest applied concentration” value at Cx43 hemichannels (30 min) is given as “released a significantly higher amount of ATP”. Further, the “Cx43 mRNA expression at 5 µM” value in the data set on Cx43 mRNA expression (effect only seen at 5 µM) is “decrease in Cx43 mRNA expression”. Moreover, the “Cmax” value in data set [1] was 9.03 [29] µM. Also, in the data set with DUBCA-hCx43 cells, the “CC10 (concentration inducing 10% cell death)” value is on record as 50 µM.
For the molecule `NC(=O)c1nc(F)c[nH]c1=O` [Favipiravir], the “extracellular ATP release (Cx43 hemichannel activity) compared to DF control” value on Cx43 hemichannels is given as “not significantly different from the DF control”. The “Cx43 mRNA expression” value in the data set with Cx43 mRNA expression is listed as “no effects”. In addition, in data set [1], the “Cmax” value was 53.4 [26] µM. Also, in the data set on DUBCA-hCx43 cells, the “cytotoxic effect on the cells” value was “did not show any cytotoxic effect” and the “CC10 (concentration inducing 10% cell death)” value is given as above 400 µM.
